Results reported in PubChem BioAssay AID1845204 (Molecular Pharmacology Branch, DTP, NCI, 2023).
Values joined by “and” are separate entries in the source; they are usually repeats but may differ in a detail not shown here. Equal entries are not always repeated. Active and inactive are the calls of the source. Rule for the calls: active = viability on the fitted dose curve at most 10% of control; inactive = the rest.

Tested on: HSSY-II tumor spheroid viability
Assay: Anticancer human tumor HSSY-II cell line growth inhibition;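 for IC50: spheroids exposed to compounds for seven days before reading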;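 for viability, T/C: spheroids exposed to compounds for seven days before reading; percent of DMSO vehicle control viability so 100% = untreated level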
Conditions: spheroids with HUVEC and MSC; for viability, T/C: stronger effect = lower value
Method in brief: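 Complex spheroids of malignant cells with endothelial cells and mesenchymal stem cells; agents alone or combined, from near clinical Cmax (or 10 microM if unknown) down in half-log steps, 0.25% DMSO final.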

[1] = curve of first compound, second compound 0.003 µM
[2] = second compound 0.003 µM, first compound 0.0949 µM
[3] = second compound 0.003 µM, first compound 0.3 µM
[4] = second compound 0.003 µM, first compound 0.949 µM
[5] = second compound 0.003 µM, first compound 3 µM

Structure (SMILES): O=C(c1cc(Cc2n[nH]c(=O)c3ccccc23)ccc1F)N1CCN(C(=O)C2CC2)CC1 + CC[C@@]1(O)C(=O)OCc2c1cc1n(c2=O)Cc2cc3c(CN(C)C)c(O)ccc3nc2-1
- IC50 [1]: 505 nM
- IC50 (curve of first compound, second compound 0.00949 µM): < 94.9 nM
- IC50 (curve of first compound, second compound 0.03 µM): < 94.9 nM
- IC50 (curve of first compound, second compound 0.0949 µM): < 94.9 nM
- IC50 (curve of first compound, second compound 0.3 µM): < 94.9 nM
- viability, T/C [2]: 63.4%
- viability, T/C [3]: 56.4%
- viability, T/C [4]: 41.4%
- viability, T/C [5]: 18.8%
- viability, T/C (second compound 0.003 µM, first compound 9.49 µM): 7.55%
- viability, T/C (second compound 0.003 µM, first compound 30 µM): 7.59%
- viability, T/C (second compound 0.00949 µM, first compound 0.0949 µM): 14.3%
- viability, T/C (second compound 0.00949 µM, first compound 0.3 µM): 11.9%
- viability, T/C (second compound 0.00949 µM, first compound 0.949 µM): 10.8%
- viability, T/C (second compound 0.00949 µM, first compound 3 µM): 7.16%
- viability, T/C (second compound 0.00949 µM, first compound 9.49 µM): 6.35%
- viability, T/C (second compound 0.00949 µM, first compound 30 µM): 7%
- viability, T/C (second compound 0.03 µM, first compound 0.0949 µM): 5.6%
- viability, T/C (second compound 0.03 µM, first compound 0.3 µM): 5.95%
- viability, T/C (second compound 0.03 µM, first compound 0.949 µM): 5.27%
- viability, T/C (second compound 0.03 µM, first compound 3 µM): 6.36%
- viability, T/C (second compound 0.03 µM, first compound 9.49 µM): 5.82%
- viability, T/C (second compound 0.03 µM, first compound 30 µM): 6.47%
- viability, T/C (second compound 0.0949 µM, first compound 0.0949 µM): 5.02%
- viability, T/C (second compound 0.0949 µM, first compound 0.3 µM): 4.58%
- viability, T/C (second compound 0.0949 µM, first compound 0.949 µM): 4.8%
- viability, T/C (second compound 0.0949 µM, first compound 3 µM): 4.07%
- viability, T/C (second compound 0.0949 µM, first compound 9.49 µM): 4.67%
- viability, T/C (second compound 0.0949 µM, first compound 30 µM): 5.85%
- viability, T/C (second compound 0.3 µM, first compound 0.0949 µM): 3.79%
- viability, T/C (second compound 0.3 µM, first compound 0.3 µM): 4.17%
- viability, T/C (second compound 0.3 µM, first compound 0.949 µM): 3.66%
- viability, T/C (second compound 0.3 µM, first compound 3 µM): 4.24%
- viability, T/C (second compound 0.3 µM, first compound 9.49 µM): 3.48%
- viability, T/C (second compound 0.3 µM, first compound 30 µM): 4.55%

Structure (SMILES): CC[C@@]1(O)C(=O)OCc2c1cc1n(c2=O)Cc2cc3c(CN(C)C)c(O)ccc3nc2-1
- viability, T/C (compound 0.003 µM): 85.6% [middle of 10 runs]
- viability, T/C (compound 0.03 µM): 9.85% [middle of 10 runs]
- viability, T/C (compound 0.0949 µM): 8.03% [middle of 9 runs]
- viability, T/C (compound 0.3 µM): 5.25% [middle of 10 runs]
- IC50 (compound alone, run of 12/02/2019): 8.2 nM [middle of 5 runs]
- IC50 (compound alone, run of 12/12/2019): 11.6 nM [middle of 5 runs]

Structure (SMILES): CNCc1ccc(-c2cc(-c3nc(-c4ccc(S(=O)(=O)C(C)C)cc4)cnc3N)on2)cc1
- viability, T/C (compound 0.00949 µM): 97.3% and 98% and 97.5%
- viability, T/C (compound 0.03 µM): 74.1% and 79.3% and 68.2%
- viability, T/C (compound 0.0949 µM): 8.25% and 5.12% and 7.65%
- viability, T/C (compound 0.3 µM): 4.73% and 4.15% and 5.89%
- viability, T/C (compound 0.949 µM): 1.97% and 2.75% and 1.7%
- viability, T/C (compound 3 µM): 0.23% (2×) and 0.46%
- IC50 (curve of compound): 45.8 nM and 47.3 nM and 42.4 nM

Structure (SMILES): COc1ccc([C@@H](O)c2cc(-c3ncnc4cc(N5CCOCC5)ccc34)c(F)cc2Cl)nn1
- viability, T/C (compound 0.0316 µM): 99% (2×) and 100%
- viability, T/C (compound 0.1 µM): 108% and 97.5% and 98%
- viability, T/C (compound 0.316 µM): 98.5% and 89.3% and 86.9%
- viability, T/C (compound 1 µM): 67.9% and 60.5% and 66.9%
- viability, T/C (compound 3.16 µM): 40.8% and 40.2% and 43.4%
- viability, T/C (compound 10 µM): 15.2% and 20.4% and 21.2%
- IC50 (curve of compound): 2100 nM and 1830 nM and 2260 nM

Structure (SMILES): Cc1sc2c(c1C)C(c1ccc(Cl)cc1)=NC(CC(=O)Nc1ccc(O)cc1)c1nnc(C)n1-2 (stereo not given) + COc1cc2c(cc1O)CCNC21CSC2c3c(OC(C)=O)c(C)c4c(c3C(COC1=O)N1C(O)C3Cc5cc(C)c(OC)c(O)c5C(C21)N3C)OCO4
- IC50 (curve of first compound, second compound 30 pM): 108 nM
- IC50 (curve of first compound, second compound 94.9 pM): 54 nM
- IC50 (curve of first compound, second compound 0.0003 µM): < 9.49 nM
- IC50 (curve of first compound, second compound 0.000949 µM): < 9.49 nM
- IC50 [1]: < 9.49 nM
- viability, T/C (second compound 30 pM, first compound 0.00949 µM): 84.8%
- viability, T/C (second compound 30 pM, first compound 0.03 µM): 78.4%
- viability, T/C (second compound 30 pM, first compound 0.0949 µM): 53.1%
- viability, T/C (second compound 30 pM, first compound 0.3 µM): 23.3%
- viability, T/C (second compound 30 pM, first compound 0.949 µM): 14.2%
- viability, T/C (second compound 30 pM, first compound 3 µM): 7.89%
- viability, T/C (second compound 94.9 pM, first compound 0.00949 µM): 76.4%
- viability, T/C (second compound 94.9 pM, first compound 0.03 µM): 60.5%
- viability, T/C (second compound 94.9 pM, first compound 0.0949 µM): 40.5%
- viability, T/C (second compound 94.9 pM, first compound 0.3 µM): 19.5%
- viability, T/C (second compound 94.9 pM, first compound 0.949 µM): 11.1%
- viability, T/C (second compound 94.9 pM, first compound 3 µM): 4.34%
- viability, T/C (second compound 0.0003 µM, first compound 0.00949 µM): 11.4%
- viability, T/C (second compound 0.0003 µM, first compound 0.03 µM): 13.4%
- viability, T/C (second compound 0.0003 µM, first compound 0.0949 µM): 10.5%
- viability, T/C (second compound 0.0003 µM, first compound 0.3 µM): 4.16%
- viability, T/C (second compound 0.0003 µM, first compound 0.949 µM): 1.76%
- viability, T/C (second compound 0.0003 µM, first compound 3 µM): 0.21%
- outcome (second compound 0.000949 µM, first compound 0.00949 µM): active
- viability, T/C (second compound 0.000949 µM, first compound 0.03 µM): 1.98%
- outcome (second compound 0.000949 µM, first compound 0.0949 µM): active
- viability, T/C (second compound 0.000949 µM, first compound 0.3 µM): 0.18%
- viability, T/C (second compound 0.000949 µM, first compound 0.949 µM): 0.05%
- viability, T/C (second compound 0.000949 µM, first compound 3 µM): 0.12%
- viability, T/C (second compound 0.003 µM, first compound 0.00949 µM): 0.14%
- viability, T/C (second compound 0.003 µM, first compound 0.03 µM): 0.14%
- viability, T/C [2]: 0.17%
- viability, T/C [3]: 0.17%
- viability, T/C [4]: 0.14%
- viability, T/C [5]: 0.27%
